From ChEMBL document CHEMBL6182864, “Design, synthesis and biological evaluation of 3-amino-6-(2-hydroxyphenyl)pyridazin-4-aryl derivatives as SMARCA2/4 degraders” (Eur J Med Chem, 2025)
Activity calls are given as the source filed them. The calls are words filed in the database; no cut-off is given here.

Legend:
MV4-11 [1] = assay: Antiproliferative activity against human MV4-11 cells assessed as reduction in cell viability at 100 nM by MTT assay; assay type: functional, cell-based; settings: time 3-7 day
MOLM-13 [2] = assay: Antiproliferative activity against human MOLM-13 cells assessed as reduction in cell viability at 100 nM by MTT assay; assay type: functional, cell-based; settings: time 3-7 day
[3] = Down regulation of SMARCA4 level in human MV4-11 cells at 100 nM measured after 6 hrs by mass spectrometric proteomic analysis relative to control; assay type: functional
[4] = Down regulation of PBRM1 level in human MV4-11 cells at 100 nM measured after 6 hrs by mass spectrometric proteomic analysis relative to control; assay type: functional
MV4-11 [5] = assay: Effect on SMARCA2 mRNA expression in human MV4-11 cells at 1000 nM measured after 24 hrs by RT-qPCR analysis; assay type: functional, cell-based
MV4-11 [6] = assay: Effect on SMARCA4 mRNA expression in human MV4-11 cells at 1000 nM measured after 24 hrs by RT-qPCR analysis; assay type: functional, cell-based
MV4-11 [7] = assay: Cell cycle arrest in human MV4-11 cells assessed as increase in accumulation of cells at G0/G1 phase measured after 48 hrs by propidium iodide staining based flow cytometry; assay type: functional; settings: dose 100-1000 nM
MOLM-13 [8] = assay: Cell cycle arrest in human MOLM-13 cells assessed as increase in accumulation of cells at G0/G1 phase measured after 48 hrs by propidium iodide staining based flow cytometry; assay type: functional; settings: dose 100-1000 nM
MV4-11 [9] = assay: Induction of apoptosis in human MV4-11 cells assessed as viable cells at 100 nM measured after 72 hrs by Annexin-V-FITC/propidium iodide staining based flow cytometry (reference value: 89.49%); assay type: functional; settings: read-out: Activity
MV4-11 [10] = assay: Induction of apoptosis in human MV4-11 cells assessed as late apoptotic cells at 100 nM measured after 72 hrs by Annexin-V-FITC/propidium iodide staining based flow cytometry (reference value: 1.09%); assay type: functional
MOLM-13 [11] = assay: Induction of apoptosis in human MOLM-13 cells assessed as viable cells at 100 nM measured after 72 hrs by Annexin-V-FITC/propidium iodide staining based flow cytometry (reference value: 90.28%); assay type: functional; settings: read-out: Activity
MOLM-13 [12] = assay: Induction of apoptosis in human MOLM-13 cells assessed as upregulation of PARP expression measured after 72 hrs by Western blot analysis; assay type: functional, cell-based; settings: dose 100-1000 nM
MV4-11 [13] = assay: Down regulation of […] mRNA expression in human MV4-11 cells at 11.1 to 33.3 nM measured after 24 hrs by RT-qPCR analysis; assay type: functional, cell-based; settings: dose 11.1-33.3 nM
MV4-11 [14] = assay: Down regulation of […] mRNA expression in human MV4-11 cells at 100 to 1000 nM measured after 24 hrs by RT-qPCR analysis; assay type: functional, cell-based; settings: dose 100-1000 nM
MV4-11 [15] = assay: Down regulation of TRAP1 mRNA expression in human MV4-11 cells at 100 to 1000 nM measured after 24 hrs by RT-qPCR analysis; assay type: functional, cell-based; settings: dose 100-1000 nM
MV4-11 [16] = assay: Down regulation of PU.1 mRNA expression in human MV4-11 cells at 11.1 to 1000 nM measured after 24 hrs by RT-qPCR analysis; assay type: functional, cell-based; settings: dose 11.1-1000 nM
[17] = Half life in SPF Sprague-Dawley rat at 1 mg/kg, iv by LC-MS/MS analysis; assay type: ADME, organism-based; settings: in vivo
[18] = AUC (0 to t) in SPF Sprague-Dawley rat at 1 mg/kg, iv by LC-MS/MS analysis; assay type: ADME, organism-based; settings: in vivo
[19] = Half life in SPF Sprague-Dawley rat at 10 mg/kg, po by LC-MS/MS analysis; assay type: ADME, organism-based; settings: in vivo
[20] = MRT (0 to t) in SPF Sprague-Dawley rat at 10 mg/kg, po by LC-MS/MS analysis; assay type: ADME, organism-based; settings: in vivo
MV4-11 [21] = assay: Induction of apoptosis in human MV4-11 cells assessed as late apoptotic cells at 300 nM measured after 72 hrs by Annexin-V-FITC/propidium iodide staining based flow cytometry (reference value: 1.09%); assay type: functional
MV4-11 [22] = assay: Induction of apoptosis in human MV4-11 cells assessed as necrotic cells at 300 nM measured after 72 hrs by Annexin-V-FITC/propidium iodide staining based flow cytometry (reference value: 0.1%); assay type: functional
MOLM-13 [23] = assay: Induction of apoptosis in human MOLM-13 cells assessed as late apoptotic cells at 1000 nM measured after 72 hrs by Annexin-V-FITC/propidium iodide staining based flow cytometry (reference value: 3.87%); assay type: functional
MV4-11 [24] = assay: cells; settings: Homo sapiens, MV4-11, 72 h
MOLM-13 [25] = assay: cells; settings: Homo sapiens, MOLM-13, 72 h
SUD4 = assay: cells; settings: Homo sapiens, SU-DHL-4, 72 h
WSUDLCL2 = assay: cells; settings: Homo sapiens, WSUDLCL2, 72 h
MDA-MB-231 = assay: cells; settings: Homo sapiens, MDA-MB-231, 72 h
MCF7 = assay: cells; settings: Homo sapiens, MCF7, 72 h
SNU-449 = assay: cells; settings: Homo sapiens, SNU-449, 72 h
A549 = assay: cells; settings: Homo sapiens, A549, 72 h

With Cc1ncsc1-c1ccc([C@H](C)NC(=O)[C@@H]2C[C@@H](O)CN2C(=O)[C@@H](NC(=O)C2(c3ccc(-c4cc(-c5ccccc5O)nnc4N)cc3)CC2)C(C)(C)C)cc1 the Activity (MV4-11 [1]) was “Time-dependent-effect; Complete Reduction Was Achieved On Day 7”, the Activity (MOLM-13 [2]) was “Time-dependent-effect; Complete Reduction Was Achieved On Day 7” and the Activity [3] was “>=50%”. For the same compound, the Activity [4] was “>=50%”, the Activity (MV4-11 [5]) was “Active; Little Effect Mrna Level Observed” and the Activity (MV4-11 [6]) was “Active; Little Effect Mrna Level Observed”. For the same compound, the Activity (MV4-11 [7]) was “Dose-dependent-effect”, the Activity (MOLM-13 [8]) was “Dose-dependent-effect” and the viability at 0.1 µM (MV4-11 [9]) was 32.3%. The Activity (MV4-11 [10]) was 18.96%, the viability at 0.1 µM (MOLM-13 [11]) was 54.1% and the Activity (MOLM-13 [12]) was “Dose-dependent-effect”. The Activity (MV4-11 [13]) was “inactive”, the Activity (MV4-11 [14]) was “Active” and the Activity (MV4-11 [15]) was “Active”. The Activity (MV4-11 [16]) was “Active”, the half-life [17] was 1.91 h and the AUCt [18] was 358 ng·h/mL. It also gave a half-life [19] of 2.1 h, an MRT last [20] of 0.81 h and an Activity (MV4-11 [21]) of 20.37%. It also gave an Activity (MV4-11 [22]) of 1.1%, an Activity (MOLM-13 [23]) of 16.77% and an IC50 (MV4-11 [24]) of 0.005 µM. For the same compound, the IC50 (MOLM-13 [25]) was 0.023 µM, the IC50 (SUD4) was 0.088 µM and the IC50 (WSUDLCL2) was 0.337 µM. For the same compound, the IC50 (MDA-MB-231) was 24.3 µM, the IC50 (MCF7) was over 30 µM and the IC50 (SNU-449) was 21.5 µM. The IC50 (A549) was 6.02 µM.
